Measurements as given in patent US20260284018A1, “DUAL INHIBITORS OF DYRK1A AND 5-HT2 FOR TREATING A BRAIN DISORDER” (THE REGENTS OF THE UNIVERSITY OF CALIFORNIA, priority 2023, published 2026).

How the values were obtained:
ABL1-phosphorylated = biological target: T1, ABL1-phosphorylated (Homo sapiens, UniProt P00519); conditions: 10 μM; cited from earlier work
T1 construct: purchased Eurofins DiscoverX

AKT1 = biological target: T2, AKT1 (Homo sapiens, UniProt P31749); conditions: 10 μM; cited from earlier work
T2 construct: purchased Eurofins DiscoverX
T2 sequence (P31749 whole entry): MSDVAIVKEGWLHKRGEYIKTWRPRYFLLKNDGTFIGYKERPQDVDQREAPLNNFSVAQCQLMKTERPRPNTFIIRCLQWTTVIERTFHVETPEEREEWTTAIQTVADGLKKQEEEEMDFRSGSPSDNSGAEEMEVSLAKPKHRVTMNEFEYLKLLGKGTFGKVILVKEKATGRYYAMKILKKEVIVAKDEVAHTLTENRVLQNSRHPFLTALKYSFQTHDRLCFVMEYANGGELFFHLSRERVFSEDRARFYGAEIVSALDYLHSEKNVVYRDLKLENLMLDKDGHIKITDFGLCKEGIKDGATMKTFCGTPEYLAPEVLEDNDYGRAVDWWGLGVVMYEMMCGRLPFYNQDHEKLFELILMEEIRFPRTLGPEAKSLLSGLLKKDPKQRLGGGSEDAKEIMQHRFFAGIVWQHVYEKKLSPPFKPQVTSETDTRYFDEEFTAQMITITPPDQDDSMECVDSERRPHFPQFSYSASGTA

AURKA = biological target: T3, AURKA (Homo sapiens, UniProt O14965); conditions: 10 μM; cited from earlier work
T3 construct: purchased Eurofins DiscoverX
T3 sequence (O14965 whole entry): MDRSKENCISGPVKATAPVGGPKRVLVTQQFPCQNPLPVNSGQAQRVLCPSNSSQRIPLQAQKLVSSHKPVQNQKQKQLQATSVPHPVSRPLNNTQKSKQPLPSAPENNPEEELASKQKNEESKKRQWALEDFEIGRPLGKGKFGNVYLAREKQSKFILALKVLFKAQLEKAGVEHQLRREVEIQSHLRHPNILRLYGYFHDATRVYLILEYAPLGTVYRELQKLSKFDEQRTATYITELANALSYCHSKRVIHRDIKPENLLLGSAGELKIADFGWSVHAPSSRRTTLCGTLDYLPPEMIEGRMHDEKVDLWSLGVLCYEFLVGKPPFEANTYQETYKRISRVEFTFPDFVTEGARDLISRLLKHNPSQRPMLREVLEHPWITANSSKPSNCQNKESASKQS

BMPR2 = biological target: T4, BMPR2 (Homo sapiens, UniProt Q13873); conditions: 10 μM; cited from earlier work
T4 construct: purchased Eurofins DiscoverX

BRAF(V600E) = biological target: T5, BRAF(V600E) (Homo sapiens, UniProt P15056, V600E); conditions: 10 μM; cited from earlier work
T5 construct: purchased Eurofins DiscoverX
T5 sequence (P15056 whole entry V600E): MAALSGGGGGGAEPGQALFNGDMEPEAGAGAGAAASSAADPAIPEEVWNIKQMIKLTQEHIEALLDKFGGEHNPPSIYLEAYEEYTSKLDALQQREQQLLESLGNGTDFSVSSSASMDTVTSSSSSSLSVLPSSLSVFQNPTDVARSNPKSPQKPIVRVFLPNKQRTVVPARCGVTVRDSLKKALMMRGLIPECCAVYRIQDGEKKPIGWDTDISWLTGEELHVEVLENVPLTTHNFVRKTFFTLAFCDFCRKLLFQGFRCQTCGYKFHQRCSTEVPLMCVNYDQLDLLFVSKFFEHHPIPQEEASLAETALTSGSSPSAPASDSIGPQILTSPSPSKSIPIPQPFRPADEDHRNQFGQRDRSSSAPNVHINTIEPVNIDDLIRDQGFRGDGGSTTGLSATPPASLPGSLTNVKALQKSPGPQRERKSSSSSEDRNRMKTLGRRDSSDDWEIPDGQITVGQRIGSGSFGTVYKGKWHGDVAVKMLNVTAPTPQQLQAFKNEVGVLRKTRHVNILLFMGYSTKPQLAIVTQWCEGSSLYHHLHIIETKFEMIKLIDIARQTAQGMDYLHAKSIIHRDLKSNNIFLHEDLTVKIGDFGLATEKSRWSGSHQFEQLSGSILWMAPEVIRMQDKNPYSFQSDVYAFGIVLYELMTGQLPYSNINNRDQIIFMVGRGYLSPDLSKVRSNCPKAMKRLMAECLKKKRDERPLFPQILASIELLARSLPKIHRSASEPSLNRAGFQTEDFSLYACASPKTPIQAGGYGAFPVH

DCAMKL1 = biological target: T6, DCAMKL1 (Homo sapiens, UniProt O15075); conditions: 10 μM; cited from earlier work
T6 construct: purchased Eurofins DiscoverX

DYRK1B = biological target: T7, DYRK1B (Homo sapiens, UniProt Q9Y463); conditions: 10 μM; cited from earlier work
T7 construct: purchased Eurofins DiscoverX

LKB1 = biological target: T8, LKB1 (Homo sapiens, UniProt Q15831); conditions: 10 μM; cited from earlier work
T8 construct: purchased Eurofins DiscoverX (KINOMEscan scanEDGE service)

MARK3 = biological target: T9, MARK3 (Homo sapiens, UniProt P27448); conditions: 10 μM; cited from earlier work
T9 construct: purchased Eurofins DiscoverX (KINOMEscan scanEDGE service)

p38-alpha = biological target: T10, p38-alpha (Homo sapiens, UniProt Q16539); conditions: 10 μM; cited from earlier work
T10 construct: purchased Eurofins DiscoverX (KINOMEscan scanEDGE service)
T10 sequence (Q16539 whole entry): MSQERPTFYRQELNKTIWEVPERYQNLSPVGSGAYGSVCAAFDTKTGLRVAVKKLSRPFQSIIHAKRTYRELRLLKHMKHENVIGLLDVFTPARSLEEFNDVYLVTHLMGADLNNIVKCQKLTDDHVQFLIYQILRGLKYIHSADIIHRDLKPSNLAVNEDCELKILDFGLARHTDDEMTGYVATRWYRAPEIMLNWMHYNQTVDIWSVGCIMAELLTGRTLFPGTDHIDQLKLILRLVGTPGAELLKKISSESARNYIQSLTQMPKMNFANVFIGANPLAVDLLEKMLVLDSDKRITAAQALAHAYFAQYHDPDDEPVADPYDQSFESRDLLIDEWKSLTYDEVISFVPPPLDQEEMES

p38-beta = biological target: T11, p38-beta (Homo sapiens, UniProt Q15759); conditions: 10 μM; cited from earlier work
T11 construct: purchased Eurofins DiscoverX (KINOMEscan scanEDGE service)
T11 sequence (Q15759 whole entry): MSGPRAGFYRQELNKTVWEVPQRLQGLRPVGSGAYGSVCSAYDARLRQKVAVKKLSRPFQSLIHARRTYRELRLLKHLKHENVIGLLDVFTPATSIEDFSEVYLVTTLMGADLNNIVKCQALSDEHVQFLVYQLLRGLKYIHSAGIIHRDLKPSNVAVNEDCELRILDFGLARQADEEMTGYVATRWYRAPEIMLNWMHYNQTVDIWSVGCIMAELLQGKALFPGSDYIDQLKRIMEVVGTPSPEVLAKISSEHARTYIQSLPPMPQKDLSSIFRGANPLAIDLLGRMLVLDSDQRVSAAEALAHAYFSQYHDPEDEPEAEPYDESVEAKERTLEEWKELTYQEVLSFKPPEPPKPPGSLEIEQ

PAK4 = biological target: T12, PAK4 (Homo sapiens, UniProt O96013); conditions: 10 μM; cited from earlier work
T12 construct: purchased Eurofins DiscoverX (KINOMEscan scanEDGE service)

PDPK1 = biological target: T13, PDPK1 (Homo sapiens, UniProt O15530); conditions: 10 μM; cited from earlier work
T13 construct: purchased Eurofins DiscoverX (KINOMEscan scanEDGE service)
T13 sequence (O15530 whole entry): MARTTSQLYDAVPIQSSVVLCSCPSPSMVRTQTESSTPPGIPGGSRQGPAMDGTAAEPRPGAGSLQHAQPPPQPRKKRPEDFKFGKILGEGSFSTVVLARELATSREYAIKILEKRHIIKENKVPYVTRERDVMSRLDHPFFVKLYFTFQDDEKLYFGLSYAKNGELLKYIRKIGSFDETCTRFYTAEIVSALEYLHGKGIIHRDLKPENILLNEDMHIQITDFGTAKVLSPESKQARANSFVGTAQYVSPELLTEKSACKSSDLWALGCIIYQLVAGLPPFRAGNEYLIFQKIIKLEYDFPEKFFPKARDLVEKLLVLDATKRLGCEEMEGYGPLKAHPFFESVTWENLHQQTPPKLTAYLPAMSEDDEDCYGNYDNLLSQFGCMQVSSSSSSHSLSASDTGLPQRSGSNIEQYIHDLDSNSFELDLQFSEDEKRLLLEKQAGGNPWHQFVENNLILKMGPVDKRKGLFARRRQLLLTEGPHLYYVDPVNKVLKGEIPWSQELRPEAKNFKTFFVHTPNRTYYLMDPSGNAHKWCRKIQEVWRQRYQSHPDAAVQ

PIM1 = biological target: T14, PIM1 (Homo sapiens, UniProt P11309); conditions: 10 μM; cited from earlier work
T14 construct: purchased Eurofins DiscoverX (KINOMEscan scanEDGE service)
T14 sequence (P11309 whole entry): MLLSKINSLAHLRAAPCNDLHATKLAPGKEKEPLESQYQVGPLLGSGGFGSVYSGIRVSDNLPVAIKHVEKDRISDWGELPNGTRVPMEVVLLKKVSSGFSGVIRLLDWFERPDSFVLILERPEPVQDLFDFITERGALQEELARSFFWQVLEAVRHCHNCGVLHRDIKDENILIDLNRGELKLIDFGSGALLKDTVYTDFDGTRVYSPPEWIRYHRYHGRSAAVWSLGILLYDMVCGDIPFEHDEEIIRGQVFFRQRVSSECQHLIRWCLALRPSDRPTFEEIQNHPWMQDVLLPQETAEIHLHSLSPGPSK

TIE2 = biological target: T15, TIE2 (Homo sapiens, UniProt Q02763); conditions: 10 μM; cited from earlier work
T15 construct: purchased Eurofins DiscoverX KINOMEscan scanEDGE

VEGFR2 = biological target: T16, VEGFR2 (Homo sapiens, UniProt P35968); conditions: 10 μM; cited from earlier work
T16 construct: purchased Eurofins DiscoverX KINOMEscan scanEDGE

ZAP70 = biological target: T17, ZAP70 (Homo sapiens, UniProt P43403); conditions: 10 μM; cited from earlier work
T17 construct: purchased Eurofins DiscoverX KINOMEscan scanEDGE

5-HT2C = 5-HT2C (Homo sapiens, UniProt P28335); experiment: Radioligand ([3H]-LSD) competition binding assays, 5-HT2C versus 5-HT2A; conditions: FIG. 4
Chain of 5-HT2C (P28335 33-458): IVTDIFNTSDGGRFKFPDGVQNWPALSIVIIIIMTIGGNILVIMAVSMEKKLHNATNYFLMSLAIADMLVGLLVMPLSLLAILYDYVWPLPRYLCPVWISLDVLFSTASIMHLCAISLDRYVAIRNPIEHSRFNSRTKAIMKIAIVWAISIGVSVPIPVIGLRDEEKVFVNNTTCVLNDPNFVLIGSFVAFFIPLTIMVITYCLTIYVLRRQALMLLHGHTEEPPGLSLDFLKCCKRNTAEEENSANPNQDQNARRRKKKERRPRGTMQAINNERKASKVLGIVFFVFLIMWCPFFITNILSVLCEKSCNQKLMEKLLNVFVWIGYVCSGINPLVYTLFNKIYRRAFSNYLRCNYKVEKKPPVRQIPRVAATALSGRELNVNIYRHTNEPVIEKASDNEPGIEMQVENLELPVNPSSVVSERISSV
Method: Radioligands Binding Assays. Binding buffer consisted of 50 mM Tris HCl, 10 mM MgCl2, 0.1 mM EDTA disodium dihydrate in autoclaved deionized water. The solution was adjusted to pH 7.4 with […] NaOH(aq) and stored at 4° C. This solution was used for membrane preparation generation as well as in saturation and competition binding assays.
For the generation of membrane preparations, 15-cm plates of PSYLI2 cells (HEK293T cell line stably expressing psychLight2; mycoplasma free) or HEK293T cells (ATCCCRL-11268; mycoplasma free) lipofected with pCMV-GRAB_5-HT were grown in Dulbecco's Modified Eagle Media (DMEM) (Fisher, 11995073) containing 10% fetal bovine serum (Fisher, 26-140-079) and 1% penicillin/streptomycin (Fisher, 15140-163). When the cells were >90% confluent, the media was removed, and the cells were washed with Dulbecco's Phosphate Buffered Saline (DPBS, 15 mL) (ThermoFisher, #14190-250). Next, DMEM (15 mL) lacking fetal bovine serum and penicillin/streptomycin was added, and the cells were serum-starved for 4-12 h. All but ~5 mL of the media was removed from the plates before placing them on ice. […] The suspension was transferred to 2.0 mL Eppendorf tubes in 1.0 mL aliquots, saving a single aliquot of 0.25-0.50 mL suspension to use for quantification of protein concentration via a Bradford assay. […]

T1 sequence (P00519 whole entry): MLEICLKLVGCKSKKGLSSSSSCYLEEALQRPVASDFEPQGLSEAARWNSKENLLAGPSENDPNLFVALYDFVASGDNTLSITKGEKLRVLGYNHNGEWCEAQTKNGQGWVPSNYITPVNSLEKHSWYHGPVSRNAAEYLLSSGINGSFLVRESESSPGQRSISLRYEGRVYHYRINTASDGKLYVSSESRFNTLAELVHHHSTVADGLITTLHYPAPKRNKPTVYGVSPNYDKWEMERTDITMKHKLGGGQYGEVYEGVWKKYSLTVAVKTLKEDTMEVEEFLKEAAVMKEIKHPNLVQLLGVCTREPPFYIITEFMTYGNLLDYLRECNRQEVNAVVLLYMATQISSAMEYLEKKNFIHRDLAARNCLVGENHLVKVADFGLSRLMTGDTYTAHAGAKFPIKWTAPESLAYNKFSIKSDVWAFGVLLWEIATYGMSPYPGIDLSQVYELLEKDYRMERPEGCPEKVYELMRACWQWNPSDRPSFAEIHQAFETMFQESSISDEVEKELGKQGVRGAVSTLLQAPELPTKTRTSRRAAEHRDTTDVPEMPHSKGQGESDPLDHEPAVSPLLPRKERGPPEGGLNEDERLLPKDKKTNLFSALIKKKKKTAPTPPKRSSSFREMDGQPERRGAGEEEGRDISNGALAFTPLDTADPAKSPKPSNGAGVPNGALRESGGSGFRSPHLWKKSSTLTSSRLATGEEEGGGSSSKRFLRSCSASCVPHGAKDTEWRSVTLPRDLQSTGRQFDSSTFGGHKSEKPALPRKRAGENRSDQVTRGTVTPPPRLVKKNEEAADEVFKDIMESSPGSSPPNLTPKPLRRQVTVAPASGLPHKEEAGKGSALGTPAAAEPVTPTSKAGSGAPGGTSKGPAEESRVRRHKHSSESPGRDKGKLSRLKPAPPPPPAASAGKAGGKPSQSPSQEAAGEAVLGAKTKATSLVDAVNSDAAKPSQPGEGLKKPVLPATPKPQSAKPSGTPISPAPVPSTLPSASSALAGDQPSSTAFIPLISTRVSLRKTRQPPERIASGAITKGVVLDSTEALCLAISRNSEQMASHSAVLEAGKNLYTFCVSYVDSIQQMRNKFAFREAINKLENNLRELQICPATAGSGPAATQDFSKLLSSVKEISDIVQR

Row | SMILES | Percent Control (ABL1-phosphorylated) [%] | Percent Control (AKT1) [%] | Percent Control (AURKA) [%] | Percent Control (BMPR2) [%] | Percent Control (BRAF(V600E)) [%] | Percent Control (DCAMKL1) [%] | Percent Control (DYRK1B) [%] | Percent Control (LKB1) [%] | Percent Control (MARK3) [%] | Percent Control (p38-alpha) [%] | Percent Control (p38-beta) [%] | Percent Control (PAK4) [%] | Percent Control (PDPK1) [%] | Percent Control (PIM1) [%] | Percent Control (TIE2) [%] | Percent Control (VEGFR2) [%] | Percent Control (ZAP70) [%] | affinity for 5-HT2C relative to 5-HT2A (5-HT2C)
1 | COc1ccc2c(c1)[nH]c1c(C)nccc12 [Harmine, harmine] | 100 | 96 | 85 | 96 | 90 | 79 | 6.1 | 91 | 91 | 95 | 85 | 76 | 100 | 45 | 94 | 78 | 92 | –
2 | COc1ccc2c3ccnc(C)c3n(CCN(C)C)c2c1.O=C(O)/C=C/C(=O)O [HTW_A_8 fumarate, 2-(7-methoxy-1-methyl-9H-pyrido[3,4-b]indol-9-yl)-N,N-dimethylethan-1-amine Fumarate Salt (2:3)] | – | – | – | – | – | – | – | – | – | – | – | – | – | – | – | – | – | higher affinity ligands for 5-HT2C than 5-HT2A
3 | COc1ccc2c(c1)N(CCN(C)C)/C(=C/C(C)=O)S2.O=C(O)/C=C/C(=O)O [HTW_B_14 fumarate, (Z)-1-(3-(2-(dimethylamino)ethyl)-5-methoxybenzo[d]thiazol-2(3H)-ylidene)propan-2-one Fumarate Salt (1:1)] | – | – | – | – | – | – | – | – | – | – | – | – | – | – | – | – | – | higher affinity ligands for 5-HT2C than 5-HT2A
